Assay results taken from patent US20230212144A1, “5-MEMBERED HETEROARYL DERIVATIVE CONTAINING AT LEAST ONE N, AND PHARMACEUTICAL COMPOSITION FOR PREVENTING OR TREATING MENTAL DISORDERS, CONTAINING SAME AS ACTIVE INGREDIENT” (DAEGU-GYEONGBUK MEDICAL INNOVATION FOUNDATION, priority 2020, published 2023).

Assays:
[1] = target: serotonin transporter (SERT) (Homo sapiens, UniProt P31645); test: Serotonin reuptake inhibition, [3H]-5-HT, cells transfected with 5-HT transporter cDNA; conditions: for Triple reuptake inhibition (Ratio %) SERT: compound 1 μM, relative to control without compound (100%), lower value = stronger inhibition
Experimental: (§1) After removing the medium, each compound of Examples or Comparative Examples diluted to 1 μM in uptake buffer was added to a concentration of 200 μL/well and cultured at 37° C. for 15 minutes. 100 μL of uptake buffer containing 20-30 nM [3H]-DA was added and cultured at 37° C. for 5 minutes. The reaction solution was quickly removed and washed three times with 1 mL ice-cold uptake buffer. After dissolving the resultant in 1% SDS (0.5 mL), the degree of binding of radioisotope-labeled dopamine to the transporter was measured.
(§2) For norepinephrine(NE) and serotonin(5-HT), the degree of binding of radioisotope-labeled norepinephrine or serotonin to the transporter was measured in the same manner as above, except that cells transfected with NE or 5-HT transporter cDNA were used and [3H]-NE or [3H]-5-HT was used as a substrate.
(§3) In addition, when evaluating the reuptake inhibitory effect on dopamine, norepinephrine, and serotonin, the same method was performed without treating each compound of Examples or Comparative Examples as a control, the degree of binding of radioisotope-labeled dopamine, norepinephrine, and serotonin to the transporter was measured, and by using this as a reference (100%), the triple reuptake inhibitory effect was evaluated as a relative ratio (Ratio %). That is, in the control group, the binding of dopamine, norepinephrine, and serotonin to transporters is not inhibited, but when each compound of Examples is treated and thus the binding is inhibited, the Ratio % value decreases.

[2] = target: dopamine transporter (DAT) (Homo sapiens, UniProt Q01959); test: Dopamine reuptake inhibition, [3H]-DA, HEK-293 cells transfected with dopamine transporter cDNA; conditions: for Triple reuptake inhibition (Ratio %) DAT: compound 1 μM, relative to control without compound (100%), lower value = stronger inhibition
Experimental: as §1, §3

[3] = target: norepinephrine transporter (NET) (Homo sapiens, UniProt P23975); test: Norepinephrine reuptake inhibition, [3H]-NE, cells transfected with NE transporter cDNA; conditions: for Triple reuptake inhibition (Ratio %) NET: compound 1 μM, relative to control without compound (100%), lower value = stronger inhibition
Chain of norepinephrine transporter (NET) (P23975 whole entry, species assumed): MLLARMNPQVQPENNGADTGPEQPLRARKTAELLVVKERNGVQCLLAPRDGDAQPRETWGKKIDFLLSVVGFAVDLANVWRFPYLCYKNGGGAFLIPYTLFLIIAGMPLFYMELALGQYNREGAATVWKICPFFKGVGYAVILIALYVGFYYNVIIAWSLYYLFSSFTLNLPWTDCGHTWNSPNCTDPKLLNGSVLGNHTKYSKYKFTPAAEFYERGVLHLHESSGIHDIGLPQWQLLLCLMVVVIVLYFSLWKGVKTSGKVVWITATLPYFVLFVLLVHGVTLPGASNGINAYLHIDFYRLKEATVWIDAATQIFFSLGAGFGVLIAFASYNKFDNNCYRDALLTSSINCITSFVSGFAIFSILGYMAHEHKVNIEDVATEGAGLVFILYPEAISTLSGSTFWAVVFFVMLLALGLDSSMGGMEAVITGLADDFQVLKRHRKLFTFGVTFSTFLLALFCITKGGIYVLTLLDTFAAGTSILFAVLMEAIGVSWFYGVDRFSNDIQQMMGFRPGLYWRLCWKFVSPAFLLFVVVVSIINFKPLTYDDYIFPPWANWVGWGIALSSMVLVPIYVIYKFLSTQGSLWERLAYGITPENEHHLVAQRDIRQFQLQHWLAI
Experimental: as §1, §2, §3

Chain of serotonin transporter (SERT) (P31645 whole entry, species assumed): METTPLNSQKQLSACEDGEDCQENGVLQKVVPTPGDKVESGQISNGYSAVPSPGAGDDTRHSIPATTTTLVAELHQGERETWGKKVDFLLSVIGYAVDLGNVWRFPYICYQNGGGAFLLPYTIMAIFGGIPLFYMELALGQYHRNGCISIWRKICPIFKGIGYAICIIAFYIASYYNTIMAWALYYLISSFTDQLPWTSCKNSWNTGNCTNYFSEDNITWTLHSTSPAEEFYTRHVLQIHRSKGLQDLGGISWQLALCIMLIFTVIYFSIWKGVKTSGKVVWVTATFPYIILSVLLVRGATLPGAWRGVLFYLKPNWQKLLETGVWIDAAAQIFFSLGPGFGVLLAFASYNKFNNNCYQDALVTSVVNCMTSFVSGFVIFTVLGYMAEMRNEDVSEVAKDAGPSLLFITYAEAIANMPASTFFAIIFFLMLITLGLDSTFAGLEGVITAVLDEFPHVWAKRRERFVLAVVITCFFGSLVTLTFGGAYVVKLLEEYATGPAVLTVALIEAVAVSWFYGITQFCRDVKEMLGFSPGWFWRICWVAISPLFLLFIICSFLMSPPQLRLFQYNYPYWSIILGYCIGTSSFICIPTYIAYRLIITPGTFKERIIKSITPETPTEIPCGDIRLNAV
Chain of dopamine transporter (DAT) (Q01959 whole entry, species assumed): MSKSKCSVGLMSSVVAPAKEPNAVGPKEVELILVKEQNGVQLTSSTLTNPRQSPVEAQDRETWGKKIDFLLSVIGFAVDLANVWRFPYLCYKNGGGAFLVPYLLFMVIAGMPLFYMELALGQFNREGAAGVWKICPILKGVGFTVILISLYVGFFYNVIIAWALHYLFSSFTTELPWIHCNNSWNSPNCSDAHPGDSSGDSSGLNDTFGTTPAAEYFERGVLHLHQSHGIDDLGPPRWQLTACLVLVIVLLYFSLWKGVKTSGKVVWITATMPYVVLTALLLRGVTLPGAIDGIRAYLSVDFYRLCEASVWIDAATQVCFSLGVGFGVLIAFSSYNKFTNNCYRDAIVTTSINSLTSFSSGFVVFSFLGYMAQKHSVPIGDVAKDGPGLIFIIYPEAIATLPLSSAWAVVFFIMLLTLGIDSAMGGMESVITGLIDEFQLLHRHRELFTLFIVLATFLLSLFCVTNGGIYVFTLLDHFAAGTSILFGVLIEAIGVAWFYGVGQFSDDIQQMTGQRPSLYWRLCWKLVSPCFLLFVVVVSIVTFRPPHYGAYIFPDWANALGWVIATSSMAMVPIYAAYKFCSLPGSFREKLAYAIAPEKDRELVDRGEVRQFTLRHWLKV

SMILES | Triple reuptake inhibition (Ratio %) SERT [1] [%] | Triple reuptake inhibition (Ratio %) DAT [2] [%] | Triple reuptake inhibition (Ratio %) NET [3] [%] | IC50 [1] [nM] | IC50 [2] [nM] | IC50 [3] [nM]
c1ccc(CC2CCN(Cc3nnc(-c4cc5ccccc5s4)[nH]3)CC2)cc1 [Example 26, 1-((5-(benzo[b]thiophen-2-yl)-4H-1,2,4-triazol-3-yl)methyl)-4-benzylpiperidine] | 88.78 | 26.92 | 53.01 | – | – | –
c1ccc(CC2CCN(Cc3nnc(-c4ccc5c(c4)OCO5)[nH]3)CC2)cc1 [Example 27, 1-((5-(benzo[d][1,3]dioxol-5-yl)-4H-1,2,4-triazol-3-yl)methyl)-4-benzylpiperidine] | 59.52 | 9.71 | 53.55 | 968 | 62 | 1990
Fc1ccc2[nH]c(-c3nnc(CN4CCC(Cc5ccc(Cl)c(Cl)c5)CC4)[nH]3)cc2c1 [Example 29, 2-(5-((4-(3,4-dichlorobenzyl)piperidin-1-yl)methyl)-4H-1,2,4-triazol-3-yl)-5-fluoro-1H-indole] | 72.63 | 36.13 | 45.28 | – | – | –
Cc1ccc2[nH]c(-c3nnc(CN4CCC(Cc5ccc(Cl)c(Cl)c5)CC4)[nH]3)cc2c1 [Example 30, 2-(5-((4-(3,4-dichlorobenzyl)piperidin-1-yl)methyl)-4H-1,2,4-triazol-3-yl)-5-methyl-1H-indole] | 88.71 | 72.11 | 96.77 | – | – | –
COc1cc2cc(-c3nnc(CN4CCC(Cc5ccc(Cl)c(Cl)c5)CC4)[nH]3)[nH]c2cc1OC [Example 31, 2-(5-((4-(3,4-dichlorobenzyl)piperidin-1-yl)methyl)-4H-1,2,4-triazol-3-yl)-5,6-dimethoxy-1H-indole] | 32.68 | 19.20 | 32.54 | 276 | 204 | 459
Fc1ccc2[nH]c(-c3nnc(CN4CCC(c5c[nH]c6ccccc56)CC4)[nH]3)cc2c1 [Example 32, 2-(5-((4-(1H-indol-3-yl)piperidin-1-yl)methyl)-4H-1,2,4-triazol-3-yl)-5-fluoro-1H-indole] | 51.31 | 44.81 | 93.09 | – | – | –
c1ccc(CC2CCN(Cc3nnc(-c4cc5ccccc5[nH]4)o3)CC2)cc1 [Example 33, 2-((4-benzylpiperidin-1-yl)methyl)-5-(1H-indol-2-yl)-1,3,4-oxadiazole] | 103.08 | 97.72 | 145.38 | – | – | –
Clc1ccc(CC2CCN(Cc3nnc(-c4cc5ccccc5[nH]4)o3)CC2)cc1Cl [Example 34, 2-((4-(3,4-dichlorobenzyl)piperidin-1-yl)methyl)-5-(1H-indol-2-yl)-1,3,4-oxadiazole] | 94.18 | 90.85 | 124.25 | – | – | –
Oc1cc2cc(-c3nnc(CN4CCC(Cc5ccccc5)CC4)[nH]3)[nH]c2cc1O [Example 35, 2-(5-((4-benzylpiperidin-1-yl)methyl)-4H-1,2,4-triazol-3-yl)-1H-indol-5,6-diol] | 27.99 | 35.65 | 56.53 | 300 | 629 | 427
Clc1ccc2[nH]cc(-c3nnc(CN4CCC(Cc5ccccc5)CC4)[nH]3)c2c1 [Example 41, 3-(5-((4-benzylpiperidin-1-yl)methyl)-4H-1,2,4-triazol-3-yl)-5-chloro-1H-indole] | 57.01 | 62.96 | 86.61 | – | – | –
Nc1ccc2[nH]cc(-c3nnc(CN4CCC(Cc5ccccc5)CC4)[nH]3)c2c1 [Example 43, 3-(5-((4-benzylpiperidin-1-yl)methyl)-4H-1,2,4-triazol-3-yl)-1H-indol-5-amine] | 35.57 | 54.93 | 88.30 | 506 | 435 | 4040
COc1ccc2[nH]cc(-c3nnc(CN4CCC(Cc5ccc(Cl)c(Cl)c5)CC4)[nH]3)c2c1 [Example 44, 3-(5-((4-(3,4-dichlorobenzyl)piperidin-1-yl)methyl)-4H-1,2,4-triazol-3-yl)-5-methoxy-1H-indole] | 28.87 | 80.58 | 92.59 | – | – | –

Second part, the molecule after the results:

Triple reuptake inhibition (Ratio %) SERT [1] [%] | Triple reuptake inhibition (Ratio %) DAT [2] [%] | Triple reuptake inhibition (Ratio %) NET [3] [%] | IC50 [1] [nM] | IC50 [2] [nM] | IC50 [3] [nM] | SMILES
93.63 | 65.47 | 85.85 | – | – | – | O=C(O)c1ccc2[nH]c(-c3nnc(CN4CCC(Cc5ccccc5)CC4)[nH]3)cc2c1 [Example 28, 2-(5-((4-benzylpiperidin-1-yl)methyl)-4H-1,2,4-triazol-3-yl)-1H-indol-5-carboxylic acid]
41.52 | 69.78 | 85.40 | – | – | – | COc1ccc2[nH]cc(-c3nnc(CN4CCC(Cc5ccccc5)CC4)[nH]3)c2c1 [Example 36, 3-(5-((4-benzylpiperidin-1-yl)methyl)-4H-1,2,4-triazol-3-yl)-5-methoxy-1H-indole]
27.71 | 40.29 | 79.91 | 322 | 349 | 1570 | COc1cccc2c(-c3nnc(CN4CCC(Cc5ccccc5)CC4)[nH]3)c[nH]c12 [Example 37, 3-(5-((4-benzylpiperidin-1-yl)methyl)-4H-1,2,4-triazol-3-yl)-7-methoxy-1H-indole]
51.55 | 31.70 | 64.82 | 518 | 670 | 361 | Cc1ccc2c(-c3nnc(CN4CCC(Cc5ccccc5)CC4)[nH]3)c[nH]c2c1 [Example 38, 3-(5-((4-benzylpiperidin-1-yl)methyl)-4H-1,2,4-triazol-3-yl)-6-methyl-1H-indole]
58.07 | 79.20 | 99.14 | – | – | – | Cc1ccc2[nH]cc(-c3nnc(CN4CCC(Cc5ccccc5)CC4)[nH]3)c2c1 [Example 39, 3-(5-((4-benzylpiperidin-1-yl)methyl)-4H-1,2,4-triazol-3-yl)-5-methyl-1H-indole]
53.66 | 50.15 | 92.42 | 648 | 670 | 924 | Clc1cccc2c(-c3nnc(CN4CCC(Cc5ccccc5)CC4)[nH]3)c[nH]c12 [Example 40, 3-(5-((4-benzylpiperidin-1-yl)methyl)-4H-1,2,4-triazol-3-yl)-7-chloro-1H-indole]
42.17 | 42.13 | 96.81 | 417 | 453 | 969 | COC(=O)c1cccc2c(-c3nnc(CN4CCC(Cc5ccccc5)CC4)[nH]3)c[nH]c12 [Example 42, methyl 3-(5-((4-benzylpiperidin-1-yl)methyl)-4H-1,2,4-triazol-3-yl)-1H-indol-7-carboxylate]
21.98 | 72.49 | 112.38 | – | – | – | COc1cccc2c(-c3nnc(CN4CCC(Cc5ccc(Cl)c(Cl)c5)CC4)[nH]3)c[nH]c12 [Example 45, 3-(5-((4-(3,4-dichlorobenzyl)piperidin-1-yl)methyl)-4H-1,2,4-triazol-3-yl)-7-methoxy-1H-indole]
60.13 | 13.85 | 53.00 | 2980 | 203 | 816 | N#Cc1ccc(-c2nnc(CN3CCC(Cc4ccccc4)CC3)[nH]2)cc1 [Example 46, 4-(5-((4-benzylpiperidin-1-yl)methyl)-4H-1,2,4-triazol-3-yl)benzonitrile]
51.93 | 20.47 | 68.26 | 10700 | 372 | 1170 | Fc1ccc(-c2nnc(CN3CCC(Cc4ccccc4)CC3)[nH]2)cc1 [Example 47, 4-benzyl-1-((5-(4-fluorophenyl)-4H-1,2,4-triazol-3-yl)methyl)piperidine]
53.41 | 20.20 | 23.52 | 2560 | 134 | 348 | COc1ccc(-c2nnc(CN3CCC(Cc4ccccc4)CC3)[nH]2)cc1OC [Example 48, 4-benzyl-1-((5-(3,4-dimethoxyphenyl)-4H-1,2,4-triazol-3-yl)methyl)piperidine]
63.99 | 11.41 | 44.81 | 1770 | 223 | 475 | FC(F)(F)Oc1ccc(-c2nnc(CN3CCC(Cc4ccccc4)CC3)[nH]2)cc1 [Example 49, 4-benzyl-1-((5-(4-(trifluoromethoxy)phenyl)-4H-1,2,4-triazol-3-yl)methyl)piperidine]
